Data published in patent US9168329B2, “Beta-peptides with antifungal activity” (Wisconsin Alumni Research Foundation, priority 2006, dated 2015).

How the values were obtained:
[1] = test system: Candida albicans (SC5314, ATCC 24433, ATCC 90028); format: cell-based
Description: Minimum inhibitory concentration assay. Minimum inhibitory concentrations (MIC) for the β-peptides were determined using the broth microdilution assay described by the Committee for Clinical and Laboratory Standards (formerly known as the National Committee for Clinical Laboratory Standards) (National Committee for Clinical Laboratory Standards Reference method for broth dilution antifungal susceptibility testing of yeasts: approved standard—second edition; NCCLS document M27-A2; NCCLS: Wayne, Pa., 2002). Three strains of Candida albicans were used: SC5314, ATCC 24433, and ATCC 90028. Cells were grown for 24 hours on Sabouraud dextrose agar at 30° C. After 24 hours of growth, the cells were suspended in 0.145 M saline, and the concentration was adjusted to between 1×10^6 cells/mL and 5×10^6 cells/mL in saline. The working suspension was obtained by diluting the suspension 1:1000 in RPMI 1640 (with L-glutamine and without sodium bicarbonate, Invitrogen) buffered with 0.145 mol/L 3-(N-morpholino) propanesulfonic acid (MOPS).
Twofold serial dilutions of stock solutions of α- or β-peptides or amphotericin B (Calbiochem, solubilized in dimethyl sulfoxide) were made in RPMI 1640, and 100 μL aliquots were put into 96-well plates (Falcon). An equal volume of the cell suspension was added to the wells for a total volume of 200 μL. Growth controls and sterility controls were included.
Plates were incubated at 35° C. for 48 h and then visually inspected for fungal growth. […] Experiments were performed in duplicate and repeated on at least two different days.

[2] = test system: Candida albicans biofilms (ATCC 90028, ATCC 24433, SC5314); test: Biofilm antifungal susceptibility testing (pre-formed biofilms, XTT); format: cell-based
Description: The susceptibility of Candida albicans biofilms to β-peptide treatment was evaluated using procedures based on the method described by Ramage and Lopez-Ribot. (Ramage, G.; Lopez-Ribot, J. L. Methods Mol. Med. 2005, 118, 71-79). ATCC 90028, ATCC 24433, and SC5314 were grown in liquid yeast peptone dextrose (YPD) medium overnight at 30° C. The cells were washed two times with phosphate-buffered saline (PBS, pH 7.2) and resuspended in RPMI 1640 (with L-glutamine and without sodium bicarbonate, Invitrogen) buffered with 0.145 mol/L 3-(N-morpholino) propanesulfonic acid (MOPS). After adjusting the cell suspension to about 1×10^6 cells/mL in RPMI 1640, 100 μL of the cell suspension was added to selected wells of flat-bottom 96-well plates (Falcon), leaving the last column of wells empty for background controls. Plates were covered and incubated at 37° C. for 48 hours to allow biofilms to form.
After formation, biofilms were washed three times with 200 μL of PBS per well to remove nonadherent cells. Twofold serial dilutions of β-peptide in RPMI 1640 were made, and 100 μL was added to the biofilms in the first 10 columns of the 96-well plates. RPMI 1640 without antifungal (100 μL) was added to the wells in column 11 to serve as a positive growth control. Plates were covered and incubated at 37° C. for an additional 48 hours and then washed as before.
A solution of 0.5 g/L of 2,3-bis(2-methoxy-4-nitro-5-sulfo-phenyl)-2H-tetrazolium-5-carboxanilide (XTT, Sigma) was prepared, and 10 mM menadione (Sigma) in acetone was added to give a final menadione concentration of 1 μM. The XTT solution (100 μL) was added to each well containing a biofilm and to the empty column of wells. The plates were incubated for 1.5 hours at 37° C. to allow the C. albicans cells to reduce the XTT. Following incubation, 75 μL of XTT solution was removed from each well and put into a new 96-well plate to measure the absorbance at 490 nm. The reduction of growth for each concentration of β-peptide was calculated from
[formula] where A490^peptide is the average absorbance for wells containing a specified concentration of a β-peptide, A490^no drug is the average absorbance for wells with biofilms not treated with antifungal, and A490^XTT is the average absorbance for wells containing only XTT. At least three replicates were included for each combination of β-peptide and C. albicans strains. Assay for Biofilm Formation in the Presence of β-Peptide

[3] = test system: Candida albicans (SC5314, ATCC 24433, ATCC 90028); settings: from NCCLS document M27-A2; cited from earlier work
[4] = test system: human red blood cells (hRBC); test: Hemolysis assay; format: cell-based
Description: Hemolysis assay. The hemolysis assay was performed using human red blood cells (hRBC) as described previously (Raguse, et al. J. Am. Chem. Soc. 2002, 124, 12774-12785; Porter, et al. J. Am. Chem. Soc. 2005, 127, 11516-11529). The hRBC were washed three times in TRIS-buffered saline (TBS; 10 mM TRIS, 150 mM NaCl, pH 7.2) and then diluted to a concentration of 1% (v/v) in TBS. The hRBC suspension (80 μL) was added to twofold dilutions of peptides in TBS (20 μL) in a 96-well plate (Falcon). Wells containing hRBC treated with 20 μL TBS provided a negative control, and wells with high concentrations of the peptide melittin (Sigma) served as a positive control. After incubating at 37° C. for 1 h, plates were centrifuged, and 50 μL of the supernatant was diluted with 50 μL of water in a fresh 96-well plate. The absorbance of the diluted supernatant was measured at 405 nm, and the percent hemolysis for each well was calculated from
[formula] where A405^peptide is the absorbance for the supernatant of hRBC treated with peptide, A405^buffer is the absorbance for the supernatant of hRBC in TBS, and A405^completlysis is the average absorbance for the supernatant of cells treated with melittin at concentrations of 50-400 μg/mL. Experiments were performed in duplicate on at least two different days. Biofilm Antifungal Susceptibility Testing

[5] = test system: C. albicans strain SC5314; test: Assay for biofilm formation in the presence of β-peptide; format: cell-based, Candida albicans
Description: The ability of Candida albicans to form biofilms in the presence of β-peptide was tested using a procedure modified from the protocol for testing biofilms pre-formed in 96-well plates. C. albicans strain SC5314 was grown in liquid yeast peptone dextrose (YPD) medium overnight at 30° C., and the cells were washed twice with PBS (pH 7.2). Cells were resuspended in RPMI 1640, and the cell concentration was adjusted to about 2×10^6 cells/mL in RPMI 1640.
Twofold serial dilutions of β-peptide and amphotericin B were prepared in RPMI 1640, and 50 μL of each dilution was added to wells of a 96-well plate. At least three replicates were included. β-Peptide-free control wells were also included. An equal volume of the cell suspension was added to give a final cell concentration of 1×10^6 cells/mL. Plates were covered and placed in a 37° C. incubator for 48 hours.
After allowing biofilms to form for 48 hours, nonadherent cells were removed from the wells by washing the biofilms three times with 200 μL of PBS per well. A 0.5 g/L XTT solution with 1 μM menadione was prepared, and 100 μL was added to each biofilm formation well and to empty wells for XTT background measurements. […] The absorbance of the solution in each well was measured at 490 nm, and the reduction of growth for biofilms grown in the presence of β-peptide and amphotericin B compared to biofilms grown in medium only was calculated from […]

C. albicans = settings: cited from earlier work
[6] = pH 7, physiological ionic strength

For β^3Tyr-(ACHC-β^3Val-β^3Lys)2, the “antifungal activity in the planktonic NCCLS assay (in words)” value (“antifungal activity” below) [1, 6] was “lacking activity in the planktonic assay” and the “activity in the biofilm killing assay (in words)” value ([2]; pre-formed biofilms) was “low activity”.

With `CCCCCCCCCCCCCCC(=O)N[C@H](CC(=O)N[C@H]1CCCC[C@@H]1C(=O)N[C@H]1CCCC[C@@H]1C(=O)N[C@@H](CCCCN)CC(=O)N[C@H]1CCCC[C@@H]1C(=O)N[C@H]1CCCC[C@@H]1C(=O)N[C@@H](CCCCN)CC(=O)N[C@H]1CCCC[C@@H]1C(=O)N[C@H]1CCCC[C@@H]1C(=O)N[C@@H](CCCCN)CC(N)=O)Cc1ccc(O)cc1` [C15-β^3Tyr-(ACHC-ACHC-β^3Lys)3] the “antifungal activity” value [1, 6] was “lacking activity in the planktonic assay”, the MIC ([1]; planktonic, strain not stated) was over 128 µg/mL and the “reduction in biofilm growth” value ([2]; at the highest concentration tested) was “barely surpassed this mark”. The “activity in the biofilm killing assay (in words)” value ([2]; pre-formed biofilms) was “low activity”.

In the case of `OC(Cn1cncn1)(Cn1cncn1)c1ccc(F)cc1F` [fluconazole], the MIC range [3] is listed as 0.8 to 3.3 µM.

For β^3Tyr-ACHC-(ACHC-β^3Lys)3-ACHC-ACHC, the “antifungal activity” value [1, 6] was “lacking activity in the planktonic assay” and the “activity in the biofilm killing assay (in words)” value ([2]; pre-formed biofilms) was “low activity”.

In the case of `CC(C)[C@@H](CC(=O)N[C@@H](CCCCN)CC(=O)N[C@H]1CCCC[C@@H]1C(=O)N[C@H](CC(=O)N[C@@H](CCCCN)CC(=O)N[C@H]1CCCC[C@@H]1C(=O)N[C@H](CC(=O)N[C@@H](CCCCN)CC(N)=O)C(C)C)C(C)C)NC(=O)[C@H]1CCCC[C@@H]1NC(=O)C[C@@H](N)Cc1ccc(O)cc1` [β-peptide 1, β^3Tyr-(ACHC-β^3Val-β^3Lys)3], the “Average MIC” value ([1]; average over three C. albicans strains, pH 7, physiological ionic strength, Table 1 prints no unit) is reported as 16 µg/mL, the “antifungal activity” value [1, 6] is reported as “showed activity in the planktonic assay” and the “% Hemolysis at MIC” value [4] is reported as 21%. For the same compound, the “concentration killing (nearly all cells in) pre-formed biofilms” value ([2]; pre-formed biofilms) was 256 µg/mL, the “biofilm-preventing concentration relative to planktonic MIC” value [5] was “two times its planktonic MIC” and the “concentration completely preventing biofilm formation” value [5] was 32 µg/mL.

For `C[C@@H]1[C@H](O)[C@@H](C)/C=C/C=C/C=C/C=C/C=C/C=C/C=C/[C@H](O[C@@H]2O[C@H](C)[C@@H](O)[C@H](N)[C@@H]2O)C[C@@H]2O[C@](O)(C[C@@H](O)C[C@@H](O)[C@H](O)CC[C@@H](O)C[C@@H](O)CC(=O)O[C@H]1C)C[C@H](O)[C@H]2C(=O)O` [Amphotericin B], the MIC range [3] is given as 0.3 to 2.2 µM.

For magainin 2, the “concentration reducing C. albicans growth by 50%” value (C. albicans; pH 7, low ionic strength solutions) is listed as “below 1 μg/ml” and the “activity against C. albicans (in words)” value (C. albicans; pH 7, physiologic ionic strength) is listed as “inactive”.
